Data reported in PubChem BioAssay (NCI).
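GI50 marks 50% less growth. TGI: concentration producing complete growth inhibition.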

How the values were obtained:
Assay in all cases: NCI anticancer screen, dose series, 384-well format
TK-10 renal = system: TK-10 renal
SK-MEL-2 melanoma = system: SK-MEL-2 melanoma
EKVX NSCLC = system: EKVX NSCLC
SK-OV-3 ovarian = system: SK-OV-3 ovarian
K-562 leukemia = system: K-562 leukemia
IGROV1 ovarian = system: IGROV1 ovarian
RPMI-8226 leukemia = system: RPMI-8226 leukemia
HOP-92 NSCLC = system: HOP-92 NSCLC
MDA-MB-435 melanoma = system: MDA-MB-435 melanoma
NCI-H460 NSCLC = system: NCI-H460 NSCLC
HCT-15 colon = system: HCT-15 colon
SR leukemia = system: SR leukemia
OVCAR-4 ovarian = system: OVCAR-4 ovarian

Structure (SMILES): Cc1ccc2c(N)c(C(=O)N[C@H]3CCc4cc(N5CC6CCC(C5)N6)ccc4C3)sc2n1
- GI50 (TK-10 renal): 253 nM
- TGI (TK-10 renal): 757 nM
- GI50 (SK-MEL-2 melanoma): 121 nM
- TGI (SK-MEL-2 melanoma): 421 nM
- GI50 (EKVX NSCLC): 251 nM
- TGI (EKVX NSCLC): 836 nM
- GI50 (SK-OV-3 ovarian): 99 nM
- TGI (SK-OV-3 ovarian): 940 nM
- GI50 (K-562 leukemia): 74.5 nM
- TGI (K-562 leukemia): 1080 nM
- GI50 (IGROV1 ovarian): 300 nM
- TGI (IGROV1 ovarian): 1120 nM
- GI50 (RPMI-8226 leukemia): 66.4 nM
- TGI (RPMI-8226 leukemia): 192 nM
- GI50 (HOP-92 NSCLC): 373 nM
- TGI (HOP-92 NSCLC): 1640 nM
- GI50 (MDA-MB-435 melanoma): 207 nM
- TGI (MDA-MB-435 melanoma): 804 nM
- GI50 (NCI-H460 NSCLC): 66.1 nM
- TGI (NCI-H460 NSCLC): 548 nM
- GI50 (HCT-15 colon): 260 nM
- TGI (HCT-15 colon): 1030 nM
- GI50 (SR leukemia): 161 nM
- TGI (SR leukemia): 298 nM
- GI50 (OVCAR-4 ovarian): 127 nM
- TGI (OVCAR-4 ovarian): 460 nM
